System: Schistosoma mansoni
Test: High throughput screening of compounds against Schistosoma mansoni motility
Type: functional
Parameters: dose or concentration left out as unconfirmed

SMILES: COCC(=O)N1Cc2cnc(Cc3ccc(OC)cc3)nc2C1
- Percent Effect: -28.71%

SMILES: Cn1cc(CCNC(=O)NC2CCS(=O)(=O)C2)cn1 (stereo not drawn)
- Percent Effect: -23.41%

SMILES: CS(=O)(=O)CCNC(=O)C1(c2cccc(Cl)c2)CCCCC1
- Percent Effect: 34.87%

SMILES: O=C(CSCC1CC1)N1CCCC(c2nccn2Cc2ccncc2)C1 (stereo not drawn)
- Percent Effect: 9.639%

SMILES: Cc1cccc(N2CCC(NC(=O)CCCc3cccs3)CC2)n1
- Percent Effect: -13.77%

SMILES: CCc1ncc2c(n1)CN(Cc1nnc(C)o1)CC2
- Percent Effect: -12.75%

SMILES: O=C(CCc1ccccc1)C1CCCN(C(=O)c2ncc(F)cc2F)C1 (stereo not drawn)
- Percent Effect: -32.14%

SMILES: CC(C)NC(=O)[C@@H]1C[C@H](N)CN1C(=O)c1cc2c([nH]c1=O)CCCC2
- Percent Effect: -18.08%

SMILES: O=C(CN1CCCC1Cn1cncn1)Nc1cccnc1 (stereo not drawn)
- Percent Effect: -24.16%

SMILES: COCC(C)(O)CNC(=O)COc1ccccc1OC (stereo not drawn)
- Percent Effect: -28.83%

SMILES: Cc1csc(CNC(=O)Nc2cc(C(F)(F)F)c[nH]c2=O)n1
- Percent Effect: 7.294%

SMILES: CNC(=O)C(C)(C)NC(=O)c1cc(OCC2CCC2)cc(C(=O)OC)c1
- Percent Effect: -68.4%

SMILES: NC(=O)c1cccc(CC2CCN(C(=O)CO)C2)c1 (stereo not drawn)
- Percent Effect: -14.33%

SMILES: CSc1ccccc1CN1CCn2nc(CNC(C)=O)cc2C1
- Percent Effect: -11.64%

SMILES: Cc1nn(C)c(N(C)C)c1CNCC(O)COc1ccc(F)cc1 (stereo not drawn)
- Percent Effect: -41.92%

SMILES: CC(Cn1cncn1)NCc1nncn1C1CCCCC1 (stereo not drawn)
- Percent Effect: 4.936%

SMILES: O=C(NCCN1CCC(c2cccs2)CC1)c1ccccc1C(F)(F)F
- Percent Effect: 2.003%

SMILES: Cc1ncc(CNC(=O)Nc2cc(C(F)(F)F)c[nH]c2=O)s1
- Percent Effect: -39.38%

SMILES: O=C(CSc1ccncc1)N1C[C@H]2CC[C@@H]1CN(Cc1cccnc1)C2
- Percent Effect: -27.79%

SMILES: O[C@H]1[C@H](n2cc(-c3ccccc3)nn2)c2ccccc2C12CCNCC2
- Percent Effect: 3.648%

SMILES: O=C1CC2(CCN(CCO)CC2)CN1Cc1cc(F)cc(F)c1
- Percent Effect: 8.592%

SMILES: CN1CCN(Cc2nnc(C3CCN(CC4CC4)CC3)n2C)CC1
- Percent Effect: -64.34%

SMILES: Cc1ccsc1[C@@H]1CCN(C(=O)c2cc3ccccc3[nH]2)C[C@H]1O
- Percent Effect: 28.15%

SMILES: O=C(Nc1nccs1)N1CCCC(N2CCNC2=O)C1 (stereo not drawn)
- Percent Effect: -22.52%

SMILES: Cc1nccn1-c1cc(CNC(=O)c2ccccn2)ccn1
- Percent Effect: -81.26%

SMILES: CCc1nnc2n1CCN(Cc1csc(-c3ccsc3)n1)C2
- Percent Effect: -55.89%

SMILES: Cc1ccc(NC(C)C(=O)NCc2cccs2)cc1C (stereo not drawn)
- Percent Effect: -60.11%

SMILES: COC(=O)c1sccc1S(=O)(=O)N1CCC(Oc2ncccc2Cl)CC1
- Percent Effect: -59.58%

SMILES: O=C(c1cnc(COc2ccccc2)nc1O)N1CCOCC1
- Percent Effect: 1.503%

SMILES: Cc1ncsc1CCC(=O)NCc1cc2n(n1)CCN(C(=O)N(C)C)C2
- Percent Effect: 10.91%

SMILES: Cc1cc(C(=O)N2CCC(c3nccn3CCCN(C)C)CC2)no1
- Percent Effect: -19.46%

SMILES: COc1cccc(N2CCN(Cc3ncc[nH]3)CC2=O)c1
- Percent Effect: -64.93%

SMILES: CN(C)C(=O)c1cccc(NC(=O)N(CCO)Cc2ccsc2)c1
- Percent Effect: -21.08%

SMILES: COc1ccccc1OCC(=O)NCC(O)(c1ccccc1)C1CC1 (stereo not drawn)
- Percent Effect: -13.46%

SMILES: Cc1ccn(-c2ccccc2NCc2cccnc2C)n1
- Percent Effect: -3.196%

SMILES: O=C(c1ccc(Br)o1)N1CCCC(n2cncn2)C1 (stereo not drawn)
- Percent Effect: -24.61%

SMILES: CN(C)C(=O)c1ccc2c(c1)N(C)C(CC(=O)NCc1ccno1)CO2 (stereo not drawn)
- Percent Effect: 0.8383%

SMILES: CCN(CCn1cccn1)Cc1nc(-c2ccccc2F)oc1C
- Percent Effect: -13.18%

SMILES: COc1ncccc1C(=O)NCC1Cc2ccccc2O1 (stereo not drawn)
- Percent Effect: -86.67%

SMILES: CCC(=O)N1CCC(c2nnc(Cn3cccn3)n2C2CC2)CC1
- Percent Effect: -15.52%

SMILES: CC(=O)c1cc(CN2C[C@H]3CC[C@@H]2CN(S(=O)(=O)N(C)C)C3)cs1
- Percent Effect: -16.28%

SMILES: CN(Cc1ccccc1)CC1(O)CCCN(CC(C)(C)C)C1=O (stereo not drawn)
- Percent Effect: 9.775%

SMILES: Cc1nc(C)n(CC2CCCCN2CC(=O)Nc2cccnc2)n1 (stereo not drawn)
- Percent Effect: -10.51%

SMILES: COCc1cn([C@@H]2c3ccccc3C3(CCNCC3)[C@H]2O)nn1
- Percent Effect: -22.09%

SMILES: CC(C)S(=O)(=O)NCC1CCCN(C(=O)c2cccnc2)C1 (stereo not drawn)
- Percent Effect: -61.29%

SMILES: O=C(NS(=O)(=O)c1cc(Cl)sc1Cl)c1cccc2c1OCCO2
- Percent Effect: -35.56%

SMILES: O=c1nc(SCc2cccnc2)c2c(n1CCO)CCC2
- Percent Effect: -102.8%

SMILES: COCCN1CCC(CN(CC2CCCO2)C(=O)COC)CC1 (stereo not drawn)
- Percent Effect: 27.45%

SMILES: Cc1ccc(CNCC2CCc3nnc(C(C)C)n3C2)s1 (stereo not drawn)
- Percent Effect: 21.49%

SMILES: CCOc1cc(C)nc(N2CCN(Cc3nccn3C)CC2)n1
- Percent Effect: -40.52%

SMILES: CCN(c1ccc(C(=O)N2CCCC2)cc1)S(=O)(=O)CC
- Percent Effect: 5.771%

SMILES: CC1CCN(S(=O)(=O)c2cccn(CC(=O)NC3CCCC3)c2=O)CC1
- Percent Effect: -45%

SMILES: CCc1nnc2n1CCN(C(=O)c1cnc3ccccc3n1)C2
- Percent Effect: -44.56%

SMILES: Cc1cnn(CC(C)NCc2nc(-c3cccnc3)no2)c1 (stereo not drawn)
- Percent Effect: -19.9%

SMILES: CCCOc1ccc(NC(=O)NCCC(=O)N(C)C)cc1Cl
- Percent Effect: -22.9%

SMILES: NC(=O)COc1cccc(C(=O)Nc2cnc3n2CCCC3)c1
- Percent Effect: -21.49%

SMILES: Oc1ccc(N2CCN(Cc3cc4c(cc3Br)OCCO4)CC2)cc1
- Percent Effect: -18.88%

SMILES: CSCCCN1CCn2nc(CNC(C)=O)cc2C1
- Percent Effect: -25.09%

SMILES: COC(=O)CS(=O)(=O)CCC(=O)N1CCCC1c1ccsc1 (stereo not drawn)
- Percent Effect: -22.42%

SMILES: Cc1nc(C)n(CC2CCCN2CCCc2ccccc2)n1 (stereo not drawn)
- Percent Effect: -9.599%

SMILES: Cc1nc(C2CCCN(C(=O)c3scnc3C)C2)no1 (stereo not drawn)
- Percent Effect: 18.51%

SMILES: CCN(Cc1cccnc1)CC1CCCO1 (stereo not drawn)
- Percent Effect: -47.82%

SMILES: O=C(c1cccnc1)N1C[C@@H]2CC[C@H](C1)N(Cc1cc(F)ccc1F)C2
- Percent Effect: -34.82%

SMILES: CC(C)COC(C)C(=O)N1CCN(S(C)(=O)=O)CC1 (stereo not drawn)
- Percent Effect: -53.15%

SMILES: Cc1cc(N(C)Cc2noc(C)n2)n2nc(C)c(C)c2n1
- Percent Effect: -16.19%

SMILES: Oc1cc(CCC2CCCCN2)cc(-c2ccncc2)c1 (stereo not drawn)
- Percent Effect: 6.025%

SMILES: CC(COc1ccccc1)NCc1nc(-c2cccnc2)no1 (stereo not drawn)
- Percent Effect: -35.35%

SMILES: Cc1cc(NC(=O)CCc2ccsc2)n(C)n1
- Percent Effect: 18.83%

SMILES: Cc1cc(NC(=O)CN2CCCC2c2noc(C3CC3)n2)no1 (stereo not drawn)
- Percent Effect: -30.12%

SMILES: CCCS(=O)(=O)Nc1ccc2c(c1)OCC(C)(C)C(=O)N2C
- Percent Effect: 7.848%

SMILES: CNC(=O)c1ccc(OC2CCN(S(C)(=O)=O)CC2)c(Cl)c1
- Percent Effect: 40.62%

SMILES: CC(C)c1nc(CN(C)C2CCN(CC(F)(F)F)C2)no1 (stereo not drawn)
- Percent Effect: -30.86%

SMILES: CC1CCN(CCNC(=O)C2CCN(S(N)(=O)=O)CC2)CC1
- Percent Effect: 6.276%

SMILES: Cc1cc(C)n(CC2CCCN2C(=O)c2ccc3[nH]nnc3c2)n1 (stereo not drawn)
- Percent Effect: -6.294%

SMILES: O=C(NCCn1ccc(-c2ccccn2)n1)c1ccncc1
- Percent Effect: -46.65%

SMILES: O=C(CCc1cc2n(n1)CCCN(Cc1ccccc1F)C2)NC1CC1
- Percent Effect: -12.36%

SMILES: Cc1ccc(C(=O)NC(CN2CCCC2=O)c2ccccc2)c(=O)[nH]1 (stereo not drawn)
- Percent Effect: -58.7%

SMILES: COc1ccccc1Oc1ncccc1CNC(=O)[C@@H](C)NC(C)=O
- Percent Effect: -37.6%

SMILES: CCS(=O)(=O)N(C)c1ccc(C(=O)N2CCCC(C)C2)cc1 (stereo not drawn)
- Percent Effect: -22.28%

SMILES: Cc1ccsc1CN(CCN(C)C)Cc1ccccn1
- Percent Effect: -19.12%

SMILES: COc1ccc(Br)c(C(=O)NCC2CCN(S(=O)(=O)C3CC3)CC2)c1
- Percent Effect: -3.942%

SMILES: CN(C)S(=O)(=O)N1CCN(c2nccc(C(F)(F)F)n2)CC1
- Percent Effect: -52.05%

SMILES: COCC(O)CNC(=O)c1coc(COc2ccc3sc(C)nc3c2)n1 (stereo not drawn)
- Percent Effect: 22.1%

SMILES: Cc1ccc(CC(=O)N2CCOC(c3nc(C(C)(C)C)n[nH]3)C2)cn1 (stereo not drawn)
- Percent Effect: 7.474%

SMILES: Cc1nc(C(C)(C)NC(=O)Nc2ccccc2)no1
- Percent Effect: -55.91%

SMILES: Cc1n[nH]c(C)c1C1COCCN1C(=O)Cc1cccc(F)c1 (stereo not drawn)
- Percent Effect: -66.08%

SMILES: CC(C)(C)C(=O)NCCC(=O)NS(=O)(=O)c1ccc2c(c1)OCCO2
- Percent Effect: -42.92%

SMILES: Cc1nc(C)n(CC2CCCN2CC(=O)NCCc2ccccc2)n1 (stereo not drawn)
- Percent Effect: -20.52%

SMILES: Cn1c(Cn2cccn2)nnc1C1CCN(Cc2cccnc2N)CC1
- Percent Effect: -7.123%

SMILES: O=C(NCC(F)F)N1CCC(n2ccc(C(F)(F)F)n2)CC1
- Percent Effect: -27.04%

SMILES: COCC(NC(=O)c1cnn(C)c1)c1cccc(C(F)(F)F)c1 (stereo not drawn)
- Percent Effect: -48.05%

SMILES: Cc1nc(C)n(CC2CCCN(CCc3ccncc3)C2)n1 (stereo not drawn)
- Percent Effect: -44.91%

SMILES: Cc1cc(C)n(Cc2ccc(C(=O)NCCN3CCOCC3)cc2)n1
- Percent Effect: -9.196%

SMILES: Cc1ccc(S(=O)(=O)NC2CNC(=O)C2)cc1C (stereo not drawn)
- Percent Effect: -73.52%

SMILES: CC(NC(=O)C1=NN(C)C(=O)CC1)c1ccc(F)cc1F (stereo not drawn)
- Percent Effect: -36.47%

SMILES: NC(=O)CSCCC(=O)N1CCCC1c1ccsc1 (stereo not drawn)
- Percent Effect: 10.97%

SMILES: COCCN1CCC(CN(CC2CCCO2)C(=O)CCNC(C)=O)CC1 (stereo not drawn)
- Percent Effect: -20.27%

SMILES: Cc1occc1C(=O)N1CCC2(CCCN(CC3CCC3)C2=O)C1 (stereo not drawn)
- Percent Effect: -40.66%
